ChEMBL document CHEMBL1201862, “PubChem BioAssay data set” (2004)
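All cell lines were grown in 96-well plates and treated with compound for 48 hours. GI50 is the concentration that inhibits growth by half.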 Calls of active or inactive are those of the source. No stated cut-off is given here; in the data, active = GI50 up to about 1.1 µM and inactive = higher.

How the values were obtained:
Assay in all cases: NCI tumour cell line growth inhibition, 48 h
OVCAR-4 = tested on: OVCAR-4
SK-MEL-5 = tested on: SK-MEL-5
UACC-257 = tested on: UACC-257
HT-29 = tested on: HT-29
LOX IMVI = tested on: LOX IMVI
SF-539 = tested on: SF-539
SK-MEL-2 = tested on: SK-MEL-2
CAKI-1 = tested on: CAKI-1
HOP-92 = tested on: HOP-92
A498 = tested on: A498
EKVX = tested on: EKVX
HCC 2998 = tested on: HCC 2998
OVCAR-5 = tested on: OVCAR-5
NCI-H522 = tested on: NCI-H522
NCI-H226 = tested on: NCI-H226
BT-549 = tested on: BT-549
MCF7 = tested on: MCF7
NCI/ADR-RES = tested on: NCI/ADR-RES
UACC-62 = tested on: UACC-62
COLO 205 = tested on: COLO 205
A549 = tested on: A549
HOP-62 = tested on: HOP-62
KM12 = tested on: KM12
RXF 393 = tested on: RXF 393
HL-60 = tested on: HL-60
786-0 = tested on: 786-0
MDA-N = tested on: MDA-N
U-251 = tested on: U-251
T47D = tested on: T47D
M14 = tested on: M14
OVCAR-3 = tested on: OVCAR-3
SK-OV-3 = tested on: SK-OV-3
TK-10 = tested on: TK-10
SR = tested on: SR
MOLT-4 = tested on: MOLT-4
OVCAR-8 = tested on: OVCAR-8
MDA-MB-435 = tested on: MDA-MB-435
SF-295 = tested on: SF-295
NCI-H460 = tested on: NCI-H460
SK-MEL-28 = tested on: SK-MEL-28
SF-268 = tested on: SF-268
SW-620 = tested on: SW-620
K562 = tested on: K562
ACHN = tested on: ACHN
MDA-MB-231 = tested on: MDA-MB-231
Hs-578T = tested on: Hs-578T
Malme-3M = tested on: Malme-3M
RPMI-8226 = tested on: RPMI-8226
PC-3 = tested on: PC-3
HCT-15 = tested on: HCT-15
SNB-19 = tested on: SNB-19
IGROV-1 = tested on: IGROV-1
CCRF-CEM = tested on: CCRF-CEM
UO-31 = tested on: UO-31
DU-145 = tested on: DU-145
HCT-116 = tested on: HCT-116
NCI-H23 = tested on: NCI-H23
SN12C = tested on: SN12C
SNB-75 = tested on: SNB-75

COc1ccc(/N=N\c2c(N)nn3c(SC)c(C#N)c(N)nc23)cc1
GI50 (OVCAR-4): 15.1 µM (inactive) | GI50 (SK-MEL-5): 16.1 µM (inactive) | GI50 (UACC-257): 5.11 µM (inactive) | GI50 (HT-29): 9.75 µM (inactive) | GI50 (LOX IMVI): 1.74 µM (inactive) | GI50 (SF-539): 19 µM (inactive) | GI50 (SK-MEL-2): 2.76 µM (inactive) | GI50 (CAKI-1): 10.9 µM (inactive) | GI50 (HOP-92): 9.4 µM (inactive) | GI50 (A498): 11.1 µM (inactive) | GI50 (EKVX): 3.93 µM (inactive) | GI50 (HCC 2998): 3.96 µM (inactive) | GI50 (OVCAR-5): 17.6 µM (inactive) | GI50 (NCI-H522): 16.5 µM (inactive) | GI50 (NCI-H226): 21.4 µM (inactive) | GI50 (BT-549): 14.9 µM (inactive) | GI50 (MCF7): 2.4 µM (inactive) | GI50 (NCI/ADR-RES): 23.4 µM (inactive) | GI50 (UACC-62): 5.71 µM (inactive) | GI50 (COLO 205): 12.9 µM (inactive) | GI50 (A549): 18 µM (inactive) | GI50 (HOP-62): 22.3 µM (inactive) | GI50 (KM12): 15.1 µM (inactive) | GI50 (RXF 393): 6.47 µM (inactive) | GI50 (HL-60): 2.71 µM (inactive) | GI50 (786-0): 3.67 µM (inactive) | GI50 (MDA-N): 13.6 µM (inactive) | GI50 (U-251): 5.43 µM (inactive) | GI50 (T47D): 1.85 µM (inactive) | GI50 (M14): 12.6 µM (inactive) | GI50 (OVCAR-3): 2.82 µM (inactive) | GI50 (SK-OV-3): 19.5 µM (inactive) | GI50 (TK-10): 19.1 µM (inactive) | GI50 (SR): 2.44 µM (inactive) | GI50 (MOLT-4): 2.61 µM (inactive) | GI50 (OVCAR-8): 5.04 µM (inactive) | GI50 (MDA-MB-435): 13.3 µM (inactive) | GI50 (SF-295): 19.9 µM (inactive) | GI50 (NCI-H460): 15.8 µM (inactive) | GI50 (SK-MEL-28): 6.5 µM (inactive) | GI50 (SF-268): 3.21 µM (inactive) | GI50 (SW-620): 4.6 µM (inactive) | GI50 (K562): 2.16 µM (inactive) | GI50 (ACHN): 14.6 µM (inactive) | GI50 (MDA-MB-231): 2.32 µM (inactive) | GI50 (Hs-578T): 2.52 µM (inactive) | GI50 (Malme-3M): 16.2 µM (inactive) | GI50 (RPMI-8226): 2.92 µM (inactive) | GI50 (PC-3): 6.87 µM (inactive) | GI50 (HCT-15): 8.61 µM | GI50 (SNB-19): 16.9 µM (inactive) | GI50 (IGROV-1): 1.82 µM (inactive) | GI50 (CCRF-CEM): 2.02 µM (inactive) | GI50 (UO-31): 12.4 µM (inactive) | GI50 (DU-145): 5.52 µM (inactive) | GI50 (HCT-116): 7.74 µM (inactive) | GI50 (NCI-H23): 5.55 µM (inactive) | GI50 (SN12C): 5.27 µM (inactive) | GI50 (SNB-75): 17.8 µM (inactive)

CCOC(=O)/C=C(/C(=O)OCC)n1cc(C)c(=O)n(Cc2cn(COCCOC(C)=O)nn2)c1=O
GI50 (OVCAR-4): 20 µM (inactive) | GI50 (SK-MEL-5): 24.9 µM (inactive) | GI50 (UACC-257): 20.7 µM (inactive) | GI50 (HT-29): 16.1 µM (inactive) | GI50 (LOX IMVI): 22.2 µM (inactive) | GI50 (SF-539): 15.9 µM (inactive) | GI50 (SK-MEL-2): 45.8 µM (inactive) | GI50 (CAKI-1): 9.59 µM (inactive) | GI50 (HOP-92): 13.2 µM (inactive) | GI50 (A498): 50.5 µM (inactive) | GI50 (EKVX): 16.7 µM (inactive) | GI50 (HCC 2998): 17.3 µM (inactive) | GI50 (OVCAR-5): 27.8 µM (inactive) | GI50 (NCI-H522): 2.49 µM (inactive) | GI50 (NCI-H226): 21.1 µM (inactive) | GI50 (BT-549): 19.9 µM (inactive) | GI50 (MCF7): 16.5 µM (inactive) | GI50 (NCI/ADR-RES): 21 µM (inactive) | GI50 (UACC-62): 17.1 µM (inactive) | GI50 (COLO 205): 7.82 µM (inactive) | GI50 (A549): > 100 µM (inactive) | GI50 (HOP-62): > 100 µM (inactive) | GI50 (KM12): 23.1 µM (inactive) | GI50 (RXF 393): 23.7 µM (inactive) | GI50 (HL-60): 8.57 µM (inactive) | GI50 (786-0): 20 µM (inactive) | GI50 (MDA-N): 38.3 µM (inactive) | GI50 (U-251): 26.3 µM (inactive) | GI50 (T47D): 25.8 µM (inactive) | GI50 (M14): 46 µM (inactive) | GI50 (OVCAR-3): 24.7 µM (inactive) | GI50 (SK-OV-3): > 100 µM (inactive) | GI50 (TK-10): 14.2 µM (inactive) | GI50 (SR): 20.9 µM (inactive) | GI50 (MOLT-4): 15 µM (inactive) | GI50 (OVCAR-8): 16.2 µM (inactive) | GI50 (MDA-MB-435): 18.3 µM (inactive) | GI50 (SF-295): > 100 µM (inactive) | GI50 (NCI-H460): > 40.6 µM (inactive) | GI50 (SK-MEL-28): 19.8 µM (inactive) | GI50 (SF-268): 19.5 µM (inactive) | GI50 (SW-620): 6.84 µM (inactive) | GI50 (K562): 7.18 µM (inactive) | GI50 (ACHN): 7.06 µM (inactive) | GI50 (MDA-MB-231): 28.4 µM (inactive) | GI50 (Hs-578T): 26.3 µM (inactive) | GI50 (Malme-3M): 11 µM (inactive) | GI50 (RPMI-8226): 17.9 µM (inactive) | GI50 (PC-3): 37.3 µM (inactive) | GI50 (HCT-15): 20.7 µM | GI50 (SNB-19): > 52.6 µM (inactive) | GI50 (IGROV-1): 17.2 µM (inactive) | GI50 (CCRF-CEM): 0.984 µM (active) | GI50 (UO-31): 1.07 µM (active) | GI50 (DU-145): 36.3 µM (inactive) | GI50 (HCT-116): 20.7 µM (inactive) | GI50 (NCI-H23): 6.18 µM (inactive) | GI50 (SN12C): 25.8 µM (inactive) | GI50 (SNB-75): 33.2 µM (inactive)

C[C@H]1[C@H](C)CC[C@]2(C(=O)OC3OC(CO)C(O)C(O)C3O)CC[C@]3(C)C(=CC[C@@H]4[C@@]5(C)C[C@@H](O)[C@@H]6OC(=O)c7cc(O)c(O)c(O)c7-c7c(cc(O)c(O)c7O)C(=O)OC[C@]6(CO)[C@@H]5CC[C@]43C)[C@H]12 (some centres not stated)
GI50 (OVCAR-4): 14.7 µM (inactive) | GI50 (SK-MEL-5): 39.8 µM (inactive) | GI50 (UACC-257): > 78.3 µM (inactive) | GI50 (HT-29): 19.1 µM (inactive) | GI50 (LOX IMVI): 12.6 µM (inactive) | GI50 (SF-539): > 100 µM (inactive) | GI50 (SK-MEL-2): > 65 µM (inactive) | GI50 (CAKI-1): 17 µM (inactive) | GI50 (HOP-92): 63.1 µM (inactive) | GI50 (A498): > 100 µM (inactive) | GI50 (EKVX): 36.7 µM (inactive) | GI50 (HCC 2998): 17.3 µM (inactive) | GI50 (OVCAR-5): > 67.9 µM (inactive) | GI50 (NCI-H522): 13.6 µM (inactive) | GI50 (NCI-H226): 67.8 µM (inactive) | GI50 (BT-549): > 100 µM (inactive) | GI50 (MCF7): 7.1 µM (inactive) | GI50 (NCI/ADR-RES): > 62.4 µM (inactive) | GI50 (UACC-62): 70.6 µM (inactive) | GI50 (COLO 205): 41.7 µM (inactive) | GI50 (A549): 78 µM (inactive) | GI50 (HOP-62): 30.9 µM (inactive) | GI50 (KM12): 24.2 µM (inactive) | GI50 (RXF 393): > 91.4 µM (inactive) | GI50 (HL-60): 25.9 µM (inactive) | GI50 (786-0): 14 µM (inactive) | GI50 (MDA-N): 21.5 µM (inactive) | GI50 (U-251): 16.4 µM (inactive) | GI50 (T47D): 42.7 µM (inactive) | GI50 (M14): 97.9 µM (inactive) | GI50 (OVCAR-3): 35.2 µM (inactive) | GI50 (SK-OV-3): 31.7 µM (inactive) | GI50 (TK-10): > 100 µM (inactive) | GI50 (SR): 17.3 µM (inactive) | GI50 (MOLT-4): 17.7 µM (inactive) | GI50 (OVCAR-8): 29.6 µM (inactive) | GI50 (MDA-MB-435): 17.8 µM (inactive) | GI50 (SF-295): 29.2 µM (inactive) | GI50 (NCI-H460): 23.7 µM (inactive) | GI50 (SK-MEL-28): > 100 µM (inactive) | GI50 (SF-268): > 83.4 µM (inactive) | GI50 (SW-620): 27.4 µM (inactive) | GI50 (K562): 45.7 µM (inactive) | GI50 (ACHN): > 73.3 µM (inactive) | GI50 (MDA-MB-231): 12.4 µM (inactive) | GI50 (Hs-578T): > 100 µM (inactive) | GI50 (Malme-3M): > 100 µM (inactive) | GI50 (RPMI-8226): 66.7 µM (inactive) | GI50 (PC-3): > 62.4 µM (inactive) | GI50 (HCT-15): 28.1 µM | GI50 (SNB-19): 26.5 µM (inactive) | GI50 (IGROV-1): > 86.3 µM (inactive) | GI50 (CCRF-CEM): 20.8 µM (inactive) | GI50 (UO-31): 56.9 µM (inactive) | GI50 (DU-145): > 100 µM (inactive) | GI50 (HCT-116): 41.2 µM (inactive) | GI50 (NCI-H23): 46.8 µM (inactive) | GI50 (SN12C): 30.5 µM (inactive) | GI50 (SNB-75): > 88.5 µM (inactive)
